84 compounds from PubChem BioAssay AID2305 (GlaxoSmithKline (GSK), 2010) can be followed below.

The test system of the assay is P. falciparum 3D7 growth, pLDH absorbance. As to the kind of experiment: P. falciparum 3D7 growth inhibition, dose response, strain 3D7 (AID 2305).

Structures are written as SMILES. pIC50: −log10 of the molar value. Where “and” joins values, the source holds several entries; their conditions need not be identical. Equal entries are not always repeated.

For the compound `COc1ccc(NC(=O)Nc2nc3ccccc3s2)cc1N1CCN(C)CC1`, the pIC50 (in general, −log10 of the IC50, conventionally taken in molar units) is 6.15.
For the compound `COc1ccc(CN2CCC(NCc3cccc([N+](=O)[O-])c3)CC2)cc1`, the pIC50 was 6.04.
The value for `CCCc1c(Cl)cc(CNCCCNc2nc3ccncc3[nH]2)cc1Cl` was 6.13; that for `COc1ccc(Br)cc1/C=C/C(=O)Nc1cccc(C2CCN(C)CC2)c1` was 6.28; that for `COc1cc(Cc2cnc(N)nc2N)cc(OCCCc2cc(OCc3ccccc3)no2)c1OC` was 5.73.
Compound `CCN1CCN(c2cc(C)c3cc(NC(=O)c4ccc([N+](=O)[O-])c(C)c4)ccc3n2)CC1` showed a pIC50 of 6.19.
The value for `COc1ccc2nccc([C@@H](O)CN3CCC(NCc4ccc5sc(=O)[nH]c5c4)CC3)c2c1` was 6.54; that for `Cc1cccc2[nH]c(-c3cccc(-c4cccc(NC(=O)COc5ccccc5C(N)=O)c4)c3)nc12` was 6.80; that for `NC(=O)c1cc2nc(NC3CCC3)nc(Nc3cccc4[nH]ncc34)c2[nH]1` was 6.14.
As to `O=C(NC(c1ccccc1)c1ccc2cccnc2c1O)c1ccccc1` (centres undefined), the pIC50 was 6.37.
Take `O=C(/C=C/c1ccc(Cl)c(Cl)c1)NCCCCCN1CCC(NC(=O)Nc2ccc(F)cc2F)CC1`: the pIC50 is 6.13.
With `O=C(Nc1cccc(Cl)c1)OC1CCCN2CCCCC12` (centres undefined) the figure was 5.99.
`COc1ccc(-c2ccc(NC(=O)c3cccc(C#N)c3)cc2)cc1CN1CCN(C)CC1` showed a pIC50 of 6.15.
`CN1CCCN(c2ccnc3cc4c(cc23)N(C(=O)c2ccc(Cl)cc2)CC4)CC1` showed a pIC50 of 6.10.
For `Oc1ccc(-c2nc(-c3ccc4oc5ccc(-c6[nH]c(-c7ccc(O)cc7)nc6-c6ccccc6)cc5c4c3)c(-c3ccccc3)[nH]2)cc1`, the pIC50 was 5.95.
With `COc1ccc(C[C@H]2NC[C@H](O)[C@H]2OC(C)=O)cc1` the figure was 6.85; with `N#Cc1ccc(N[C@@H](CC2CCCCC2)C(=O)N[C@@H]2CCCc3ccccc32)c2ccccc12`, 6.14.
In turn, `CN(CCCCCN1CCC(NC(=O)Nc2ccc(Oc3ccccc3)cc2)C1)C(=O)/C=C/c1ccc(Cl)c(Cl)c1` (centres undefined) gave a pIC50 of 6.38.
The value for `CCCCNCc1ccc(OCc2cccc(COc3ccc(CNCCCC)cc3I)c2)c(I)c1` was 5.95.
The value for `COC[C@H]1CCCN1Cc1ccc(-c2ccc(-c3nc4ccccc4[nH]3)s2)cc1` was 6.00; that for `CCCCCCc1ncc(-c2cc3cc(O)c(-c4ccccc4)cc3oc2=O)s1` was 5.91.
The value for `COc1cc2c(cc1S(=O)(=O)c1ccc(NC(=O)Nc3ccc(F)cc3)cc1)CCN(C)CC2` was 6.33; that for `CC(C)C[C@H](NC(=O)c1cc2ccccc2s1)C(=O)N[C@H]1CCN(Cc2ccc(OC3CCN(C)C3)c(Cl)c2)C1` (some centres undefined) was 6.11; that for `COc1cc(Cc2cnc(N)nc2N)cc(CC(C)O)c1O` (centres undefined) was 6.08.
Turning to `c1ccc(-c2[nH]ncc2Nc2ccnc3ccccc23)nc1`, the pIC50 was 6.09.
Compound `CC(C)c1ccc(O)cc1Nc1ccnc2ccc(C(F)(F)F)cc12` had a pIC50 of 6.17.
With `O=C(Nc1ccc(C(F)(F)F)cc1)c1cccc(S(=O)(=O)NC2CCN(Cc3ccccc3)C2)c1` (centres undefined) the figure was 5.98.
Regarding `COc1cccc(C(=O)C2CC2CN2CC=C(c3c(C)[nH]c4ccccc34)CC2)c1` (centres undefined), the pIC50 was 6.15.
With `O=C(C=Cc1ccccc1C(F)(F)F)NC1CCC(CN2CCC(c3c[nH]c4ccccc34)CC2)CC1` (centres undefined) the figure was 6.05 and 6.17; with `Cc1cccn2c(=O)c3cc(C(=O)NC(C)c4ccccc4)c(=N)n(CCc4ccccc4)c3nc12` (centres undefined), 6.26; with `CCN1CCN(c2cc(C)c3cc(NC(=O)c4cccc(C(F)(F)F)c4)ccc3n2)CC1`, 6.24.
For the compound `CCOC(=O)c1ccc(NC(=O)Nc2cccc(-c3ccc(-c4nc5c(C)cccc5[nH]4)s3)c2)cc1`, the pIC50 was 6.85.
With `O=C(/C=C/c1ccc(Cl)c(Cl)c1)NCCCCCN1CCC(C(=O)Nc2ccc(Cl)c(Cl)c2)CC1` the figure was 6.19.
With `c1ccc2c(NCCOCCNc3c4ccccc4nc4ccccc34)c3ccccc3nc2c1`, the pIC50 was 6.06.
With `O=C(/C=C/c1ccc(Cl)cc1)NCCCCCN1CCN(C(=O)Nc2ccc(Cl)c(C(F)(F)F)c2)CC1` the figure was 6.04; with `NS(=O)(=O)c1cccc(Nc2nc(N[C@@H]3CCNC3)nc3cc[nH]c(=O)c23)c1`, 6.03.
The value for `C[C@H](NC(=O)c1c(CN2CCC(N3CCCCC3=O)CC2)c(-c2cccs2)nc2ccccc12)C1CCCCC1` was 6.05; that for `CC(C(=O)NC1CCN(c2ccnc(Nc3ccc(F)cc3)n2)C1)c1ccc(Cl)cc1` (centres undefined) was 6.07.
The value for `CCOC(=O)c1c(C)n(C2CCCCCC2)c2cc(Br)c(O)cc12` was 5.92; that for `COc1ccc2nccc([C@@H](O)CN3CCC(NCc4nc5ccc(F)cc5[nH]4)CC3)c2c1` was 6.14.
For `CCCC1(NC[C@@H](O)[C@H](Cc2ccccc2)NC(=O)c2cc(NCC)cc(N3CCCCS3(=O)=O)c2)CC1`, the pIC50 was 5.97.
`CN1CCN(CCCN(Cc2csc(-c3ccc(CNCc4ccccc4)cc3)n2)C(=O)Nc2cccc(Cl)c2)CC1` had a pIC50 of 6.10.
`Oc1c(Br)cc2oc3c(c2c1CNCc1ccccc1)CCCC3` showed a pIC50 of 6.02.
With `O=C(NC1CCN(Cc2cccc(C(F)(F)F)c2)CC1)c1ccc(-c2cccc(Cl)c2)s1` the figure was 5.95.
For `CC[C@H]1CN2CC[C@H]1C[C@H]2[C@H](O)c1ccnc2ccc(O)cc12`, the pIC50 was 6.19.
The compound `Oc1ccc2[nH]cc(C3CCN(CCC(c4ccccc4)c4ccccc4)CC3)c2c1` gave a pIC50 of 6.00.
As to `CCCCc1ccc(NC(=O)Nc2ccc3c(c2)CCNCC3)cc1`, the pIC50 is 6.24.
With `CC(C)(C)COC(=O)c1ccc(NC(=O)N[C@@H](Cc2ccc(O)cc2)C(=O)NC2CCN(Cc3ccc(O)cc3)C2)cc1` (some centres undefined) the figure was 6.17.
The value for `O=C(/C=C/c1ccc(Cl)c(Cl)c1)NCCCCCN1CCC(NC(=O)c2ccc(F)c(F)c2)CC1` was 6.10; that for `CN(C)CCNc1ncnc2c1[nH]c1ccc(Br)cc12` was 6.13; that for `Cc1cccc2[nH]c(-c3ccc(-c4cccc(NC(=O)C(C)CN(C)C)c4)s3)nc12` (centres undefined) was 6.14.
Take `COc1cc(C)nc2ccc(NC(=O)c3cc([N+](=O)[O-])cc([N+](=O)[O-])c3)cc12`: the pIC50 is 6.41.
Compound `COc1ccccc1NC(=O)NC1CCN(CCCCCNC(=O)/C=C/c2ccc(Cl)c(Cl)c2)CC1` had a pIC50 of 6.12.
For the compound `CN1CCN(CCCN(Cc2csc(-c3ccc(CNCc4ccccc4)cc3)n2)S(=O)(=O)c2ccc(F)cc2)CC1`, the pIC50 was 6.07.
With `Cc1cccc2[nH]c(-c3cccc(-c4cccc(CNCc5cnn(-c6ccccc6)n5)c4)c3)nc12` the figure was 6.18; with `O=C(N[C@H]1CCN(CCc2ccc(O[C@H]3CCNC3)c(Br)c2)C1)c1ccc(Cl)c(Cl)c1`, 6.18.
On to `Cc1cc(C)c(S(=O)(=O)N2CCCCC(c3cccc(C(F)(F)F)c3)=N2)c(C)c1`, for which the pIC50 was 6.34.
The value for `CC(C)(C)c1ccc(CN2CCC(CNC(=O)c3cc(-c4cccc(C(F)(F)F)c4)cs3)C2)cc1` (centres undefined) was 5.99.
The value for `CCOC(=O)c1c(CN2CCN(C)CC2)n(Cc2ccccc2)c2cc(Br)c(O)cc12` was 6.23; that for `O=C(NCCCCN1CCC(c2nc3ccccc3s2)CC1)c1cc2ccccc2[nH]1` was 5.99.
The value for `Cc1cccc2[nH]c(-c3ccc(-c4ccc(NC(=O)Nc5ccc(Cl)c(Cl)c5)cc4)cc3)nc12` was 6.08; that for `Nc1nc(Nc2cccc(Cl)c2)ncc1C(=O)NCc1ccncc1` was 6.08; that for `CC(C)(C)c1ccc(Cn2c(=N)n(CC(=O)c3ccc(-c4ccccc4)cc3)c3ccccc32)cc1` was 6.80.
For the compound `Cc1cccc(C)c1CNc1ccnc2cc(Br)ccc12`, the pIC50 is 6.77.
The value for `Cc1cc(N[C@@H](CC(C)C)C(=O)Nc2ccccc2)nc(NCCc2ccc(F)cc2)n1` was 5.96.
With `O=C(C=Cc1cc([N+](=O)[O-])ccc1Cl)NC1CCC(CN2CCC(c3c[nH]c4ccccc34)CC2)CC1` (centres undefined), the pIC50 was 6.13.
In the case of `Cc1cc(NCC(c2ccccc2)c2ccccc2)nc(NCc2ccc(C(F)(F)F)cc2)n1`, the pIC50 was 6.60.
`CC(=O)c1ccc(NC(=O)Nc2ccc(N(C)c3ccnc(Nc4cccc(CS(C)(=O)=O)c4)n3)cc2)cc1` gave a pIC50 of 6.92.
With `N#Cc1cccc(C(=O)NC2CCN(CCCCCNC(=O)/C=C/c3ccc(Cl)c(Cl)c3)CC2)c1` the figure was 6.06.
`CC1CCCC(NCc2c(O)ccc3ccccc23)C1` (centres undefined) gave a pIC50 of 6.03.
The value for `COc1cc(Cc2cnc(N)nc2N)cc(OCCCCC2SC(=O)NC2=O)c1Br` (centres undefined) was 6.92; that for `Oc1ccc(CCCNc2nc(NCc3ccccc3-c3ccccc3)nc(N3CCNCC3)n2)cc1` was 6.15.
With `CC(C)(C)NCCN(Cc1ccc(-c2ccc(C(F)(F)F)cc2)cc1)C(=O)Cn1c(CCc2cccc(F)c2F)nc(=O)c2c1CCC2` the figure was 6.02.
With `COc1cc2c(cc1OC)CN(CCc1ccc(NC(=O)c3cc4cc(OC(F)(F)F)ccc4[nH]3)cc1)CC2` the figure was 6.28; with `Cc1cccc2[nH]c(-c3ccc(-c4ccc(NC(=O)NCc5cccc(F)c5)cc4)s3)nc12`, 6.05.
Consider `CCc1[nH]nc(C(=O)NC2CCN(CC3(c4ccc(OC)cc4)CCCCC3)CC2)c1C`, for which the pIC50 is 6.05.
For `Cc1c(N)ccc2[nH]c(-c3ccc(N)cc3)nc12`, the negative-log IC50 (pIC50) was 5.92.
The value for `C[C@H](NC(=O)c1c(CN2CCC(N3CCCCC3)CC2)c(-c2ccccc2)nc2cc(O)ccc12)C1CCCCC1` was 6.12; that for `COc1ccc2nccc(N3CCC(NCCNCc4ccc5c(n4)NC(=O)CO5)C3)c2n1` (centres undefined) was 6.07.
With `CC(=O)c1ccc(Nc2c(C(N)=O)cnc3cc(-c4c(C)noc4C)ccc23)cc1` the figure was 6.72; with `Cc1cc(NN=Cc2ccc(F)cc2)c2ccc(C(F)(F)F)cc2n1`, 6.09; with `CC1CCCN1Cc1ccc(-c2ccc3c(=O)cc(CCc4cccc(F)c4F)n(CC(=O)N(C)Cc4ccc(-c5ccc(C(F)(F)F)cc5)cc4)c3n2)cc1` (centres undefined), 6.09.
The value for `COc1cc2nc(N3CCC(CNC(=O)c4ccc(-c5ccc(C(=O)N(C)C)cc5)c(OCCO)c4)CC3)nc(N)c2cc1OC` was 6.14; that for `CCCCNC[C@@H](O)[C@H](Cc1ccccc1)NC(=O)c1cc(NCC)cc(N2CCCCS2(=O)=O)c1` was 6.40.
